Measured values reported in PubChem BioAssay (NCI).
Where “and” joins values, the source holds several entries; their conditions need not be identical. Identical values can stand only once.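 Growth conditions: 96-well plates. Treatment: test compound, 48 hours, 5 concentrations. Analysis: linear interpolation between bracketing concentrations; unreached endpoints set to highest concentration. GI50: concentration for 50% inhibition of growth. TGI: total growth inhibition.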

Legend:
Assay in all cases: NCI anticancer screen, dose series, 48 h
A549 NSCLC = tested on: A549 NSCLC
NCI/ADR-RES ovarian = tested on: NCI/ADR-RES ovarian
HS 578T breast = tested on: HS 578T breast
OVCAR-5 ovarian = tested on: OVCAR-5 ovarian
T-47D breast = tested on: T-47D breast
CAKI-1 renal = tested on: CAKI-1 renal
HCT-15 colon = tested on: HCT-15 colon
NCI-H522 lung = tested on: NCI-H522 lung
UACC-62 melanoma = tested on: UACC-62 melanoma
OVCAR-4 ovarian = tested on: OVCAR-4 ovarian

Q: Which results are given for CN(C)c1ccc(/C=C2\C[C@H]3[C@@H]4CC=C5C[C@@H](N6CCCC6)CC[C@]5(C)[C@H]4CC[C@]3(C)[C@H]2O)cc1?
A: GI50 (A549 NSCLC): 3.79 µM; TGI (A549 NSCLC): 4.41 µM and 15.3 µM; GI50 (NCI/ADR-RES ovarian): 4.01 µM; TGI (NCI/ADR-RES ovarian): 6.19 µM and 19.9 µM; GI50 (HS 578T breast): 2.83 µM; TGI (HS 578T breast): 2.5 µM and 7.93 µM; GI50 (OVCAR-5 ovarian): 14.1 µM; TGI (OVCAR-5 ovarian): 13 µM and 57.2 µM; GI50 (T-47D breast): 2.33 µM; TGI (T-47D breast): 2.33 µM and 6.03 µM; GI50 (CAKI-1 renal): 1.99 µM; TGI (CAKI-1 renal): 3.88 µM and 23.9 µM; GI50 (HCT-15 colon): 3.43 µM; TGI (HCT-15 colon): 5.51 µM and 22.3 µM; TGI (NCI-H522 lung): 2.25 µM; GI50 (UACC-62 melanoma): 2 µM; TGI (UACC-62 melanoma): 1.6 µM and 4.05 µM; GI50 (OVCAR-4 ovarian): 2.16 µM; TGI (OVCAR-4 ovarian): 2 µM and 5.96 µM

Q: NC(=O)CCC(NC(=O)OCc1ccccc1)C(=O)OCC(=O)c1ccccc1 (centres undefined) was tested. Which GI50 (A549 NSCLC) did it give?
A: > 100 µM

Q: What about the TGI (A549 NSCLC) of the same molecule?
A: > 100 µM

Q: And the GI50 (NCI/ADR-RES ovarian)?
A: > 100 µM

Q: What about the TGI (NCI/ADR-RES ovarian) of the same molecule?
A: > 100 µM

Q: And the GI50 (HS 578T breast)?
A: > 100 µM

Q: And the TGI (HS 578T breast)?
A: > 100 µM

Q: And the GI50 (OVCAR-5 ovarian)?
A: > 100 µM

Q: What about the TGI (OVCAR-5 ovarian) of the same molecule?
A: > 100 µM

Q: What about the GI50 (T-47D breast) of the same molecule?
A: > 100 µM

Q: And the TGI (T-47D breast)?
A: > 100 µM

Q: And the GI50 (CAKI-1 renal)?
A: > 100 µM

Q: And the TGI (CAKI-1 renal)?
A: > 100 µM

Q: And the GI50 (HCT-15 colon)?
A: > 100 µM

Q: And the TGI (HCT-15 colon)?
A: > 100 µM

Q: And the GI50 (NCI-H522 lung)?
A: > 100 µM

Q: And the TGI (NCI-H522 lung)?
A: > 100 µM

Q: What about the GI50 (UACC-62 melanoma) of the same molecule?
A: > 100 µM

Q: What about the TGI (UACC-62 melanoma) of the same molecule?
A: > 100 µM

Q: What about the GI50 (OVCAR-4 ovarian) of the same molecule?
A: > 100 µM

Q: And the TGI (OVCAR-4 ovarian)?
A: > 100 µM

Q: Which results are given for CN1/C(=C\C(I)C(I)C2=[N+](C)c3ccccc3C2(C)C)C(C)(C)c2ccccc21 (centres undefined)?
A: GI50 (A549 NSCLC): 0.283 µM; TGI (A549 NSCLC): 18.3 µM; GI50 (NCI/ADR-RES ovarian): 13.3 µM; TGI (NCI/ADR-RES ovarian): 42.2 µM; GI50 (HS 578T breast): 0.992 µM; TGI (HS 578T breast): 39.2 µM; GI50 (OVCAR-5 ovarian): 1.25 µM; TGI (OVCAR-5 ovarian): > 70.5 µM; GI50 (T-47D breast): 0.0852 µM; TGI (T-47D breast): 9.39 µM; GI50 (CAKI-1 renal): 0.974 µM; TGI (CAKI-1 renal): > 38.6 µM; GI50 (HCT-15 colon): 0.997 µM; TGI (HCT-15 colon): > 37.6 µM; GI50 (NCI-H522 lung): 0.257 µM; TGI (NCI-H522 lung): 10.2 µM; GI50 (UACC-62 melanoma): 0.303 µM; TGI (UACC-62 melanoma): 14.2 µM; GI50 (OVCAR-4 ovarian): 0.25 µM; TGI (OVCAR-4 ovarian): 22.5 µM

Q: Cl.[Pt].[c-]1ccccc1-c1ccccn1.c1ccc(P(c2ccccc2)C([PH+](c2ccccc2)c2ccccc2)[PH+](c2ccccc2)c2ccccc2)cc1 was tested. Which GI50 (A549 NSCLC) did it give?
A: 1.32 µM

Q: And the TGI (A549 NSCLC)?
A: 15.1 µM

Q: What about the GI50 (NCI/ADR-RES ovarian) of the same molecule?
A: 5.21 µM

Q: And the TGI (NCI/ADR-RES ovarian)?
A: 76.5 µM

Q: And the GI50 (HS 578T breast)?
A: 2.22 µM

Q: And the TGI (HS 578T breast)?
A: 20.8 µM

Q: And the GI50 (OVCAR-5 ovarian)?
A: 2.9 µM

Q: And the TGI (OVCAR-5 ovarian)?
A: 23.9 µM

Q: What about the GI50 (T-47D breast) of the same molecule?
A: 0.916 µM

Q: And the TGI (T-47D breast)?
A: 19.5 µM

Q: What about the GI50 (CAKI-1 renal) of the same molecule?
A: 1.81 µM

Q: What about the TGI (CAKI-1 renal) of the same molecule?
A: 13.1 µM

Q: What about the GI50 (HCT-15 colon) of the same molecule?
A: 2.81 µM

Q: What about the TGI (HCT-15 colon) of the same molecule?
A: > 100 µM

Q: And the GI50 (NCI-H522 lung)?
A: 1.57 µM

Q: And the TGI (NCI-H522 lung)?
A: 7.14 µM

Q: And the GI50 (UACC-62 melanoma)?
A: 1.7 µM

Q: And the TGI (UACC-62 melanoma)?
A: 4.75 µM

Q: And the GI50 (OVCAR-4 ovarian)?
A: 0.662 µM

Q: And the TGI (OVCAR-4 ovarian)?
A: 8.63 µM

Q: Which GI50 (A549 NSCLC) does the source give for Oc1ccc2oc3ncc(Cl)c(-c4ccccc4)c3c2c1 here?
A: > 100 µM

Q: What about the TGI (A549 NSCLC) of the same molecule?
A: > 100 µM

Q: And the GI50 (NCI/ADR-RES ovarian)?
A: > 100 µM

Q: And the TGI (NCI/ADR-RES ovarian)?
A: > 100 µM

Q: And the GI50 (HS 578T breast)?
A: > 100 µM

Q: What about the TGI (HS 578T breast) of the same molecule?
A: > 100 µM

Q: What about the GI50 (OVCAR-5 ovarian) of the same molecule?
A: > 100 µM

Q: And the TGI (OVCAR-5 ovarian)?
A: > 100 µM

Q: What about the GI50 (T-47D breast) of the same molecule?
A: > 100 µM

Q: What about the TGI (T-47D breast) of the same molecule?
A: > 100 µM

Q: And the GI50 (CAKI-1 renal)?
A: > 100 µM

Q: What about the TGI (CAKI-1 renal) of the same molecule?
A: > 100 µM

Q: What about the GI50 (HCT-15 colon) of the same molecule?
A: > 100 µM

Q: What about the TGI (HCT-15 colon) of the same molecule?
A: > 100 µM

Q: What about the GI50 (NCI-H522 lung) of the same molecule?
A: > 100 µM

Q: And the TGI (NCI-H522 lung)?
A: > 100 µM

Q: And the GI50 (UACC-62 melanoma)?
A: > 100 µM

Q: What about the TGI (UACC-62 melanoma) of the same molecule?
A: > 100 µM

Q: And the GI50 (OVCAR-4 ovarian)?
A: > 100 µM

Q: And the TGI (OVCAR-4 ovarian)?
A: > 100 µM

Q: Which results are given for Cc1ccc(Cl)cc1Nc1nc(C(F)(F)F)ccc1C(=O)Nc1cccc(C(F)(F)F)c1?
A: GI50 (A549 NSCLC): 2.93 µM; TGI (A549 NSCLC): 11.7 µM; GI50 (NCI/ADR-RES ovarian): 2.13 µM; TGI (NCI/ADR-RES ovarian): 7.66 µM; GI50 (HS 578T breast): 4.66 µM; TGI (HS 578T breast): 20 µM; GI50 (OVCAR-5 ovarian): 2.59 µM; TGI (OVCAR-5 ovarian): 11.4 µM; GI50 (T-47D breast): 2.23 µM; TGI (T-47D breast): 8.95 µM; GI50 (CAKI-1 renal): 4.14 µM; TGI (CAKI-1 renal): 18.1 µM; GI50 (HCT-15 colon): 3.67 µM; TGI (HCT-15 colon): 14.9 µM; GI50 (NCI-H522 lung): 1.78 µM; TGI (NCI-H522 lung): 6.37 µM; GI50 (UACC-62 melanoma): 5.22 µM; TGI (UACC-62 melanoma): 17.1 µM; GI50 (OVCAR-4 ovarian): 3.58 µM; TGI (OVCAR-4 ovarian): 17.8 µM
